Here are results for two molecules from US12576047B2, “Telomerase activating compounds for use in fertility and related applications” (Neuromagen Pharma Ltd, priority 2017, dated 2026).

Test [1] deals with sperm. The test can be described thus: Sperm head morphology after X-ray radiation. To be noted: X-ray 2.5 Gy, single S.C. injection 6 mg/kg, 12 hours. The test is classed as in vivo, mouse. How it is done: Three-month old mice were irradiated with X-ray (2.5 Gy) and treated with a single S.C. injection of 6 mg/kg of compound 68 or 70. Mice were sacrificed 12 hours later and sperm were removed from the epididymis and stained with eosin. The number of morphologically defective sperm (head morphology) were quantified and presented as a percentage value of the total sperm count (N=6 mice per group) (FIG. 26A). FIG. 26B provides a light micrograph showing healthy and defective sperm head morphology observed. The arrows labeled 1 and 2 point to defective sperm head morphology, and the arrows labeled 3 and 4 point to healthy sperm head morphology

For test [2], the system named is ICR mice. Description: Sperm count from the epididymis, with or without X-ray radiation. The test is classed as in vivo, mouse. As for the experimental part:
Toward this end, ICR mice (3 months old) were injected with 6 mg/kg of Compound 79, Compound 68 or Compound 70, or mice were subjected to X-ray radiation (2.5 Gy) followed by immediately injection of the respective compounds. Control mice were untreated or vehicle treated with or without exposure to X-ray radiation. […] Testes were also taken for immunohistochemical and immunofluorescence analysis with various spermatogenesis markers. Epididymis was also taken for sperm count.

Test [3] deals with T1, telomerase (Rattus norvegicus, UniProt Q673L6).
T1 construct: Protein extracts prepared from these cells served for telomerase activity measurement; endogenous in cells; host or cells: immortalized rat granulosa cells expressing FSH receptor
T1 sequence (Q673L6 whole entry): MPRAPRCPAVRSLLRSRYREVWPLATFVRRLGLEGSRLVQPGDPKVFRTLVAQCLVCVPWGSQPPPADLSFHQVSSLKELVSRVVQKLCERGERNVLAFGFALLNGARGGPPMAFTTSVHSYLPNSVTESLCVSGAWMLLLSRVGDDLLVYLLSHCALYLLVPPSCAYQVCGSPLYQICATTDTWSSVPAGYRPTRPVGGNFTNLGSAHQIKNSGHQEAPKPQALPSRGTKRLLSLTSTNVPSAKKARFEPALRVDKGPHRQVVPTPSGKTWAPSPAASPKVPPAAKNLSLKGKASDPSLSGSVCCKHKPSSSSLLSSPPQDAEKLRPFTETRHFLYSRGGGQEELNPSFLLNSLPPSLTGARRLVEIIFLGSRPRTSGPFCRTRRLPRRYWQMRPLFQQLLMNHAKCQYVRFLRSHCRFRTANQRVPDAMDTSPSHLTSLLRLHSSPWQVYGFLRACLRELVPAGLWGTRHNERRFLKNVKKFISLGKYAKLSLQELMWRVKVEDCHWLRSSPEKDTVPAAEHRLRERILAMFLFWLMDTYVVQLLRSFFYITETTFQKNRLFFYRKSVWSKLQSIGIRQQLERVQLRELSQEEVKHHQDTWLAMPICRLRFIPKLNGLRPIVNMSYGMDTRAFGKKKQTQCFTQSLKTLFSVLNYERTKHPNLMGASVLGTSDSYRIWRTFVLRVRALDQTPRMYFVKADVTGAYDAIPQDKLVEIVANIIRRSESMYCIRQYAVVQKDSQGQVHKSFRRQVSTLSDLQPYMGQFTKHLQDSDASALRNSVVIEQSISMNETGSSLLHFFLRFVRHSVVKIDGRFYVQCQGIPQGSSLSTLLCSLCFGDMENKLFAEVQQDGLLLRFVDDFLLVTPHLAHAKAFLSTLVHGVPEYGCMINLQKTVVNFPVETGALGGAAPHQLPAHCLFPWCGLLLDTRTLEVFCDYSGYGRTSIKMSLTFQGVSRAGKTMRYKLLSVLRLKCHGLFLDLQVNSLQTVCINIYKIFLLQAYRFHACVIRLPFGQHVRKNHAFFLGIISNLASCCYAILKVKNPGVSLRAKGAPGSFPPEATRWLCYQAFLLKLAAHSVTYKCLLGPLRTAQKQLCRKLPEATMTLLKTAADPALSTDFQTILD
Description: TRAP assay of telomerase activity in granulosa cells. The test is classed as cell-based. The note with it: 50 nM and 200 nM for 6 hours. How it is done:
(§1) Immortalized rat granulosa cells expressing FSH receptor were treated with either pregnant mare serum gonadotropin (PMSG), or the indicated compounds, or both for 6 hours. Protein extracts prepared from these cells served for telomerase activity measurement using a telomere repeat amplification protocol (TRAP) assay.
(§2) Briefly, protein extract incubated with oligonucleotide, which serves as a template for telomerase (TS), for 45 minutes at 30° C. followed by PCR with reverse primer (ACX) and internal control. PCR products were separated on 4.5% agarose gel. RNA extracts were used for cDNA synthesis and quantitative real time PCR with specific primers to Telomerase reverse transcriptase (TERT), Steroidogenic acute regulatory protein (StAr) and β-actin as a reference gene. To measure progesterone levels secreted by the cells, granulosa cells were cultured with or without 1 IU/mL PMSG and DMSO, Compound 79 50 nM or compound 70 50 nM in the presence of 100 nM dexamethasone. After 24 hours progesterone levels cell-culture medium were determined by radioimmunoassay (RIA). For cell proliferation measurement, 1×10^5 cells were seeded in a 96 wells plate with 1 IU/mL PMSG and DMSO, Compound 79 50 nM or Compound 70 50 nM. After 24 hours cells viability was measured by XTT proliferation assay.

In test [4] the test system is Steroidogenic acute regulatory protein (StAr). Description: StAr relative mRNA levels by qRT-PCR in granulosa cells. Format: cell-based, rat. To be noted: 50 nM for 6 hours. How it is done:
as §1, §2
(Real-time PCR tracks product formation cycle by cycle.)

In test [5] the test system is Telomerase reverse transcriptase (TERT). The test can be described thus: TERT relative mRNA levels by qRT-PCR in granulosa cells. Format: cell-based, rat. To be noted: 50 nM and 200 nM for 6 hours. How it is done:
as §1, §2

Take `CC(c1cc(Br)c(O)c(Br)c1)(c1cc(Br)c(O)c(Br)c1)c1cc(Br)c(O)c(Br)c1` [Compound 68]: the “number of defective sperm cells (head morphology)” value in test [1] is listed as “reduction in the number of defective sperm cells”. In test [2] (irradiated mice, 9 and 30 days post irradiation), the sperm count result is “increased sperm count at 9 and 30 days post irradiation”. Besides, the “sperm cells number from the epididymis” value in test [2] (non-irradiated mice, 12 hrs post treatment, compared to DMSO) was “a significant increase”.

In the case of `CCOCc1cc(C(C)(c2cc(COCC)c(O)c(COCC)c2)c2cc(COCC)c(O)c(COCC)c2)cc(COCC)c1O` [Compound 79], the “telomerase activity (TRAP)” value in test [3] is “increased expression in a dose-dependent fashion”. The “expression of StAr” value in test [4] is listed as “increased expression of StAr”. Further, the “TERT relative mRNA levels” value in test [5] is “increased expression in a dose-dependent fashion”.
